# From patent publication US5929063A, “Mercapto and seleno derivatives as inhibitors of nitric oxide synthase” (priority 1995, dated 1999)
# pEC50: −log10 of the molar value. Where two headings read alike, the source gives them in different places.
# Columns and labels:
# [1] = system: J774.2 macrophages; assay: Nitrite production in immunostimulated J774.2 macrophages (E.coli LPS + murine gamma-interferon, 24 h); type: cell-based, mouse
# Description: This example illustrates the effect of selected mercapto and seleno derivatives on nitrite production in J774.2 immunostimulated macrophages. The J774.2 mouse macrophage cell line was obtained from the ATCC and was cultured in DMEM with 4×10^-3 M L-glutamine and 10% fetal calf serum. Cells were cultured in 96-well plates with 200 μl culture medium until they reached 60-80% confluence. To induce INOS, fresh culture medium containing E.coli LPS (10 μg/ml) and murine gamma-interferon (IFN)(50 U/ml) was added. Nitrite accumulation in the cell culture medium in the absence or presence of various inhibitors was measured after 24 hours. Nitrite production, an indicator of NO synthesis, was measured in the supernatant of J774.2 macrophages by the Greiss reaction as described in Example 1 above.
# This Example illustrates the effect of selected seleno derivatives on endotoxin-induced nitrite formation in J774.2 macrophages. The mouse macrophage cell line J774.2 obtained from the ATCC was cultured in DMEM with 4×10^-3 M L-glutamine and 10% fetal calf serum. Cells were cultured in 96-well plates with 200 μl culture medium until they reached 60-80% confluence. To induce iNOS, fresh culture medium containing E.coli LPS (10 μg/ml) and murine gamma-interferon (IFN)(50 U/ml) were added. Nitrite accumulation in the cell culture medium in the absence or presence of various inhibitors was measured after 24 hours. There was no detectable nitrite production by the J774.2 macrophages in the absence of immunostimulation. However, in the presence of IFN and LPS, nitrite concentration of the medium increased to 17±2 μM in the absence of inhibitor.
# [2] = target: T1, ecNOS (Bos taurus, UniProt P29473); assay: ecNOS activity from intimal scrapings of fresh bovine aortae (conversion of [3H]-L-arginine to [3H]-L-citrulline); type: biochemical; conditions: for pEC50: ecNOS (Table 2), read-out: EC50 for inhibition of ecNOS activity in tissue homogenates
# T1 construct: the intimal surface of fresh bovine aortae was scraped and homogenized; from tissue; host or cells: homogenate of intimal scrapings of fresh bovine aortae
# Description: The intimal surface of fresh bovine aortae was scraped in the presence of homogenation buffer composed of 50 mM Tris-HCl, 0.1 mM ethylenediamine tetraacetic acid (EDTA) and 0.1 mM ethyleneglycol bis (beta-aminoethyl ether) (EGTA). Conversion of [^3 H]-L-arginine to [^3 H]-L-citrulline was measured in the homogenates as follows: cell homogenate (50 μl) was incubated in the presence of [^3 H]-L-arginine (10 μM, 5 kBq/tube), NADPH (2 mM), calmodulin (30 nM), tetrahydrobiopterin (5 μM) and calcium (2 mM) for 20 minutes at 37° C. in N-2-hydroxethyl piperazine-N-2-ethane sulfonic acid (HEPES) buffer (pH 7.5). Reactions were stopped by dilution with 1 ml of ice cold HEPES buffer (pH 5.5) containing EGTA (2 mM) and EDTA (2 mM). Reaction mixtures were applied to Dowex 50W (Na^+ form) columns and the eluted [^3 H]-L-citrulline activity was measured by scintillation counting. bNOS activity was measured using similar methods in homogenates of whole rat brains.
# For a preparation rich in ecNOS, the intimal surface of fresh bovine aortae was scraped and homogenized. The homogenization buffer was composed of 50 mM tris-HCL, 0.1 mM EDTA, 0.1 mM EGTA and 1 mM phenylmethylsulfonyl chloride (pH 7.4). Cell suspensions were homogenized in the homogenization buffer on ice using a Tissue Tearor 985-370 homogenizer (BioSpec Products, Racine, Wis.). Conversion of [^3 H]-L-arginine to [^3 H]-L-citrulline was measured in the homogenates as described in Example 3 above.
# [3] = system: J774 macrophages; assay: Nitrite production by immunostimulated J774 macrophages (endotoxin 24 h, Griess); type: cell-based, mouse; conditions: Mus musculus, J774; endotoxin 10 μg/ml, 24 h (Table 1); read-out: EC50 for the inhibition of nitrite production by stimulated J774 macrophages
# Description: (§1) This example illustrates the effect of selected mercapto derivatives on endotoxin-induced nitrite formation in J774.2 macrophages and on IL-1 gamma-interferon induced nitrite formation in cultured rat arctic smooth muscle cells. J774 macrophage cell lines were obtained from the American Type Culture Collection (ATCC) and were grown using standard methods in Dulbecco's Modified Eagle Medium (DMEM) supplemented with 10% fetal bovine serum, glutamine, penicillin (10,000 U/l) and streptomycin (10,000 U/l). Rat aortic smooth muscle cells (RASM) from Wistar rats were isolated by enzymatic dissociation using standard methods. The cells were positively identified as smooth muscle by indirect immunofluorescent staining for a-actin, using mouse anti-α-actin antibody and anti-mouse IgG fluorescein isothiocyanate (FITC) conjugate. RASM cells were grown in T-75 tissue culture flasks in 50% F12 nutrient medium and 50% Dulbecco's Modified Eagle Medium supplemented with 10% fetal bovine serum, glutamine, penicillin (10,000 U/l) and streptomycin (10,000 U/l). Cells were grown in 96-well plates for measure of nitrite production and cell viability. J774 macrophages were treated with endotoxin (10 μg/ml) for 24 hours; smooth muscle cells were treated with IL-1 (100 U/ml) and gamma-interferon (50 U/ml) for 48 hours.
# Concentration of nitrite, the degradation product of NO in the culture medium, was determined by mixing equal volumes of medium with the Griess reagent (1% sulfanilamide/0.1% naphthylethylenediamine dihydrochloride/2.5% H3 PO4). The mixture was incubated for 10 minutes at room temperature to form the chromophore, then optical densities (OD) were determined at 550 nm (OD550). NaNO2 was used as the standard. Spectrophotometric measurements were performed in a dual-wavelength spectrophotometer.
# [4] = target: T2, bNOS (Rattus norvegicus, UniProt P29476); assay: bNOS activity in homogenates of whole rat brains; type: biochemical
# T2 construct: bNOS activity was measured using similar methods in homogenates of whole rat brains; from tissue; host or cells: homogenate of whole rat brains
# [5] = target: T3, iNOS (Rattus norvegicus, UniProt Q06518); assay: iNOS activity in lung homogenates from rats treated with bacterial endotoxin; type: biochemical; set-up: Lungs were obtained from rats which had been treated with bacterial endotoxin; from tissue; host or cells: lung homogenate from endotoxin-treated rats
# Description: This Example illustrates the effect of selected mercapto and seleno derivatives on iNOS activity in lung homogenates prepared from rats treated with endotoxin. […] The homogenization buffer was composed of 50 mM tris-HCL, 0.1 mM EDTA, 0.1 mM EGTA and 1 mM phenylmethylsulfonyl chloride (pH 7.4). Cell suspensions were homogenized in the homogenization buffer on ice using a Tissue Tearor 985-370 homogenizer (BioSpec Products, Racine, Wis.).
# [6] = target: T3, iNOS; assay: Inhibition of iNOS activity in tissue homogenates (Table 2); type: biochemical; set-up: bNOS in tissue homogenates; from tissue; host or cells: tissue homogenate; conditions: iNOS (Table 2)
# [7] = system: J774 macrophages; assay: Mitochondrial respiration (MTT reduction), cell viability of immunostimulated J774 macrophages; type: cell-based, mouse
# Description: as §1
# Mitochondrial respiration, an indicator of cell viability, was assessed by the mitochondrial-dependent reduction of MTT [3-(4,5-dimethylthiazol-2-yl)-2,5-diphenyltetrazolium bromide] to formazan. Cells in 96-well plates were incubated (37° C.) with MTT (0.2 mg/ml for 60 minutes). Culture medium was removed by aspiration and the cells solubilized in dimethylsulfoxide (DMSO) (100 μl). The extent of reduction of MTT to formazan within cells was quantitated by measurement of OD550 using a microplate reader. The calibration curve for the reduction of MTT to formazan was prepared in DMSO. Formazan production by cells was expressed as a percentage of the values obtained from untreated cells.
# [8] = Mus musculus, J774.2, 24 h, read-out: NITRITE (% OF CONTROL)
# T2 sequence (P29476 whole entry): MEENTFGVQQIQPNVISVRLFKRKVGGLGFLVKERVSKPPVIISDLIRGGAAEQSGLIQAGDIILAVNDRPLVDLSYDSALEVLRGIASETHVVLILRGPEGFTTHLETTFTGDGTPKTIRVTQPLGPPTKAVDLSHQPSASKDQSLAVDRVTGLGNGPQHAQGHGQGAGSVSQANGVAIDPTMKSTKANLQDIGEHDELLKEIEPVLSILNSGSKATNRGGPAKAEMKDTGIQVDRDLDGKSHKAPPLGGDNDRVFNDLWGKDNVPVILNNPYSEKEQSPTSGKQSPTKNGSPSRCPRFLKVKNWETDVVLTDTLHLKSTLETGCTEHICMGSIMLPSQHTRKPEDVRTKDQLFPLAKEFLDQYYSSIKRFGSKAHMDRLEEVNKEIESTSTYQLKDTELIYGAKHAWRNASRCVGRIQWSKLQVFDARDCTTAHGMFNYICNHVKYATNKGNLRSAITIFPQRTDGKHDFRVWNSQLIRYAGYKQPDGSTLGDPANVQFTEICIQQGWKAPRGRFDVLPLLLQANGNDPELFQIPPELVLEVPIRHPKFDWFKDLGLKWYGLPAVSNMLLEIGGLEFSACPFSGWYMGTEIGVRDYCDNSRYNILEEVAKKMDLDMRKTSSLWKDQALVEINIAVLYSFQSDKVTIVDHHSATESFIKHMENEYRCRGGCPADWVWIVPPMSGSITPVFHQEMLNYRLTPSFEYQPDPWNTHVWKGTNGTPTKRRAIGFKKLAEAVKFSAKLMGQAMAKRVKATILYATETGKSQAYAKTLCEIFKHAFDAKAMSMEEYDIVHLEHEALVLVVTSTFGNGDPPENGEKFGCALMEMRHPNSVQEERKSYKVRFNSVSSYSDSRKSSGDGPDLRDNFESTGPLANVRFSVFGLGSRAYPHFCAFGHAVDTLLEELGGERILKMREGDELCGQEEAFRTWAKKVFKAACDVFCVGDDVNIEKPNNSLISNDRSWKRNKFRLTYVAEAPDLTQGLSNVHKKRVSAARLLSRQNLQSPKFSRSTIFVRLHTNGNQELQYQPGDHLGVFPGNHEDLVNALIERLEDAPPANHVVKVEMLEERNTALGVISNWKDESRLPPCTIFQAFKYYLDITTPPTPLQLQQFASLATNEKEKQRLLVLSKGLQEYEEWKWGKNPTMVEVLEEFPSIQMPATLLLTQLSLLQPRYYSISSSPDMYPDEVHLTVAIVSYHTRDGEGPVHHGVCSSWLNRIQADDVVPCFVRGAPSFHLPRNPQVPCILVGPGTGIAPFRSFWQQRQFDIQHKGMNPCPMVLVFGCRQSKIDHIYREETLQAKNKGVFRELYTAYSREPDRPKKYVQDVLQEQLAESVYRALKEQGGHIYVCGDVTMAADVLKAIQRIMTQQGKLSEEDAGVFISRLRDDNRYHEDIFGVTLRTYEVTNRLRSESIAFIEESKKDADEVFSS
smiles,measurement,setting,value
"NC1=NCC[Se]1 [ASZ, 2-aminoselenazoline]","inhibition of nitrite production, in words",[1]; IFN and LPS,dose-dependently inhibited nitrite production
same,activity at 1 µM,[1]; [8],100%
same,activity at 3.16 µM,[1]; [8],96%
same,activity at 10 µM,[1]; [8],60%
same,activity at 31.6 µM,[1]; [8],37%
same,activity at 100 µM,[1]; [8],14%
"N=C(N)NCCSSCCNC(=N)N [GED, guanidinoethyldisulfide]","inhibition of ecNOS activity, in words",[2],inhibited ecNOS activity less strongly than the L-NMA
same,pEC50,[2],3.20
same,"inhibition of nitrite production, in words",[1]; IFN and LPS,dose-dependent inhibition of nitrite production
same,potency relative to reference compound L-NMA,[1]; IFN and LPS,higher than the reference compound L-NMA
same,activity at 1000 µM,"[1]; Mus musculus, J774.2, 24 h, inhibitor concentration -3.000 log M (Table 3), read-out: NITRITE (% OF CONTROL)",0%
same,activity at 100 µM,"[1]; Mus musculus, J774.2, 24 h, inhibitor concentration -4.000 log M (Table 3), read-out: NITRITE (% OF CONTROL)",0%
same,activity at 10 µM,"[1]; Mus musculus, J774.2, 24 h, inhibitor concentration -5.000 log M (Table 3), read-out: NITRITE (% OF CONTROL)",7%
same,activity at 1 µM,"[1]; Mus musculus, J774.2, 24 h, inhibitor concentration -6.000 log M (Table 3), read-out: NITRITE (% OF CONTROL)",36%
same,pEC50,"[1]; Mus musculus, J774.2, IFN and LPS, Example 9, read-out: EC50, inhibition of nitrite production",6.52
same,pEC50,[3],6.00
same,pEC50,[4],3.74
same,pEC50,"[5]; comparing Tables 4 and 5, read-out: EC50 on iNOS",3.70
same,selectivity for iNOS,[5]; iNOS vs ecNOS EC50 values,relative selectivity of SEG and GED for iNOS
same,iNOS ACTIVITY (%),[5]; inhibitor concentration -3.000 log M,22.000%
same,iNOS ACTIVITY (%),[5]; inhibitor concentration -4.000 log M,57.000%
same,iNOS ACTIVITY (%),[5]; inhibitor concentration -5.000 log M,100.000%
same,iNOS ACTIVITY (%),[5]; inhibitor concentration -6.000 log M,100.000%
same,iNOS ACTIVITY (%),[5]; inhibitor concentration -7.000 log M,100.000%
same,"inhibition of iNOS activity, in words","[5]; lung homogenates, rats treated with endotoxin",somewhat similar in their inhibitory effect on INOS activity
same,pEC50,[6],3.70
"N=C(NCCC[C@H](N)C(=O)O)N[N+](=O)[O-] [L-NA, N^G -Nitro-L-arginine, reference compound]",pEC50,[3],~3.00
same,pEC50,[6],3.52
"N=C(N)NCCS [MEG, mercaptoethylguanidine]",pEC50,[2],3.96
same,cellular viability,[7]; 1 mM,a slight reduction in viability was observed
same,cellular viability,[7]; effective doses 1-100 μM,did not decrease cellular viability
same,pEC50,[3],4.89
same,pEC50,[4],4.22
same,pEC50,[6],4.94
